Results taken from ChEMBL document CHEMBL5500407, “Designing Chromane Derivatives as α2A-Adrenoceptor Selective Agonists via Conformation Constraint” (J Med Chem, 2024).
Activity calls are given as the source filed them. No cut-off for these calls is given here.

Experiments:
[1] = target: T1, Alpha-2A adrenergic receptor (Homo sapiens, UniProt P08913); assay: Agonist activity at human alpha2A adrenoceptor assessed as [35S]GTPgammaS binding by scintillation counting analysis; assay type: functional
T1 sequence (P08913 whole entry): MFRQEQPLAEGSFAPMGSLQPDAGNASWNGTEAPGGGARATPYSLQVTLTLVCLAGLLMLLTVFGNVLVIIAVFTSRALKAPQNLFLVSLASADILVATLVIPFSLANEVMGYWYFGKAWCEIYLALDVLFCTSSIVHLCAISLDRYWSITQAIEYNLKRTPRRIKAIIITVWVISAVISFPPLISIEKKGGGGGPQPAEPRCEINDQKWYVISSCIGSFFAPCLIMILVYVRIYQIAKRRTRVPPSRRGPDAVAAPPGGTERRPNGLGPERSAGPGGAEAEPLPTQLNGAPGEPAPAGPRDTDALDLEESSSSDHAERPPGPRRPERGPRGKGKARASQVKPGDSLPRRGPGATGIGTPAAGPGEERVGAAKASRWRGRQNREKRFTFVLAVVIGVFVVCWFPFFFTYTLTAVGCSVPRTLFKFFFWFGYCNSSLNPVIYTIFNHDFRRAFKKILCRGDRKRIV

[2] = target: T2, Adrenergic receptor alpha-1 (Homo sapiens, UniProt P35348+P25100+P35368); assay: Binding affinity to alpha1-adrenoceptor (unknown origin); assay type: protein assay
T2 sequence (P35348 whole entry): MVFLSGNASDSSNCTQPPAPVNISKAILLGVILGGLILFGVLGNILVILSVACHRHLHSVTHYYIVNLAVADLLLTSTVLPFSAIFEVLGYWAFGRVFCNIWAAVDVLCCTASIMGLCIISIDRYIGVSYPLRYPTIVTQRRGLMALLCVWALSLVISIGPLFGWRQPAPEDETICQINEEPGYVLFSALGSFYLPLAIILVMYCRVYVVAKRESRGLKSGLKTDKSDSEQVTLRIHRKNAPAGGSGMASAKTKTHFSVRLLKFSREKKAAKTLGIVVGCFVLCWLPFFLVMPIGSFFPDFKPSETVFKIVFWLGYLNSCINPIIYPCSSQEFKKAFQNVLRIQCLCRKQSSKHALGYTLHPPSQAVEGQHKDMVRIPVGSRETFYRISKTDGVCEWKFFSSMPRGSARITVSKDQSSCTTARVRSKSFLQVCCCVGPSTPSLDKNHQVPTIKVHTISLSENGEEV
T2 sequence (P25100 whole entry): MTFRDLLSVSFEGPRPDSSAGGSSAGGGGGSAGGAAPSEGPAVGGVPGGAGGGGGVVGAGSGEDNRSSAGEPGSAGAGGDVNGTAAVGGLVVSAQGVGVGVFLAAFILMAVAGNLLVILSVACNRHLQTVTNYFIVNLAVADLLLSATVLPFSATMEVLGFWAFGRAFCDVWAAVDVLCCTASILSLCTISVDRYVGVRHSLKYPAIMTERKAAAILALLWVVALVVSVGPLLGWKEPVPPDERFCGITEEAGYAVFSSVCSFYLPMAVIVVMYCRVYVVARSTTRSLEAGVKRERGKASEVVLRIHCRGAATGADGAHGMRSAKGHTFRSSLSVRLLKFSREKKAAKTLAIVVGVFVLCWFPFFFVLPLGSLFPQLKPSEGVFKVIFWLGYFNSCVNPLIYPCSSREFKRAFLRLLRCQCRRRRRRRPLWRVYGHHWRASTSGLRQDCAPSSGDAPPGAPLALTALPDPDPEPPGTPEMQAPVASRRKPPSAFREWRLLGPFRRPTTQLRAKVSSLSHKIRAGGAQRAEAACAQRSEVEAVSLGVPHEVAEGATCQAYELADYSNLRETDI
T2 sequence (P35368 whole entry): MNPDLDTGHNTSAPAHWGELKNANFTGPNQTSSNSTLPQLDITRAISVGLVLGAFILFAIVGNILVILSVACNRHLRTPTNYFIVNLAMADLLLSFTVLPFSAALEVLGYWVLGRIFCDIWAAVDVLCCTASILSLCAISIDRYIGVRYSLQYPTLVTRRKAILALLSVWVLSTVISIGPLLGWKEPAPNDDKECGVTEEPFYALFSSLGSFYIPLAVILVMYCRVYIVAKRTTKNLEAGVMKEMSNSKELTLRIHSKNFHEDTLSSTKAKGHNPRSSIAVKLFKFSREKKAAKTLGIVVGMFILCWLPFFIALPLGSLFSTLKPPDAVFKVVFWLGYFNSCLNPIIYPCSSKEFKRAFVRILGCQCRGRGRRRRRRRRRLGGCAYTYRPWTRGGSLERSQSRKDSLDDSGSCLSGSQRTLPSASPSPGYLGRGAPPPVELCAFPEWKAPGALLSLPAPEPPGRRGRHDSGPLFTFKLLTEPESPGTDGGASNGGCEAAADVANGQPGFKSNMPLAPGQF

[3] = target: T3, Adrenergic receptor alpha-2 (Homo sapiens, UniProt P08913+P18825+P18089); assay: Binding affinity to alpha2-adrenoceptor (unknown origin); assay type: protein assay
T3 sequence (P08913 whole entry): T1 sequence (P08913 whole entry)
T3 sequence (P18825 whole entry): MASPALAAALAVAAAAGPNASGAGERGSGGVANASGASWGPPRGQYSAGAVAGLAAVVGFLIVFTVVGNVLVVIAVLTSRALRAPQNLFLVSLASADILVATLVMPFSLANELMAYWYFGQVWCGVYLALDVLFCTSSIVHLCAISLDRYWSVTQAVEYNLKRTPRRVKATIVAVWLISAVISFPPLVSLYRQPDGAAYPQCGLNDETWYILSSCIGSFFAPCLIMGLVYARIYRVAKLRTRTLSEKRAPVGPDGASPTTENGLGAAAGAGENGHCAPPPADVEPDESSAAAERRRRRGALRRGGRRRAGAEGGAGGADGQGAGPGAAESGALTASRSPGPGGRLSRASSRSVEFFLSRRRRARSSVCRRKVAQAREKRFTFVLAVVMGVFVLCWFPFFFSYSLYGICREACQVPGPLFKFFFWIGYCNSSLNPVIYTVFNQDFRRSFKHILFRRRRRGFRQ
T3 sequence (P18089 whole entry): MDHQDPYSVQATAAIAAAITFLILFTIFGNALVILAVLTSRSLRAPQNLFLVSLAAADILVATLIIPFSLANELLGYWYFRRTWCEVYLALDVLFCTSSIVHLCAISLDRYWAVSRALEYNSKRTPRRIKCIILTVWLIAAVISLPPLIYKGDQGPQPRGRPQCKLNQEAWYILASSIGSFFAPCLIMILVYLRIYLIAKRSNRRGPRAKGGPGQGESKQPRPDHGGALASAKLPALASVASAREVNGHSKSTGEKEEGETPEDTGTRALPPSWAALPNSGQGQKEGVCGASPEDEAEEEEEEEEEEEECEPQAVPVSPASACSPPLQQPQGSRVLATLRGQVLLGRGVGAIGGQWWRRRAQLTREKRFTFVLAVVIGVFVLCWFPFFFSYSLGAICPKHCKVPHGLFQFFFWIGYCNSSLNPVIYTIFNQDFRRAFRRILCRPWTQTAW

Mus musculus [4] = assay: Hypnotic activity in ip dosed C57BL/6 mouse assessed as increase in loss of righting reflex (LORR)
HEK293T [5] = assay: Agonist activity at alpha2A-adrenoceptor F427A mutant (unknown origin) expressed in HEK293T cells co-expressing pGloSensor-22F cAMP plasmid assessed as at 1 to 100 uM measured after 10 mins incubation by multiplate reader; assay type: cell-based; conditions: Homo sapiens, dose 1-100 µM
Mus musculus [6] = assay: Hypnotic activity in ip dosed C57BL/6 mouse assessed as increase in immobility time; assay type: functional, organism-based
[7] = target: T4, Alpha-1A adrenergic receptor (Homo sapiens, UniProt P35348); assay: Agonist activity at alpha1A-adrenoceptor (unknown origin) expressed in HEK293T cells assessed as fluorescence intensity measured after 30 mins by IP-one homogeneous time-resolved fluorescence assay; assay type: functional, cell-based
T4 sequence (P35348 whole entry): T2 sequence (P35348 whole entry)

Mus musculus [8] = assay: Hypnotic activity in C57BL/6 mouse assessed as increase in induction time righting reflex (LORR) in presence of atipamezole alpha2-adrenoceptor antagonist at 0.60 mg/kg, ip; assay type: functional, organism-based; conditions: dose 0.6 mg/kg
HEK293T [9] = assay: Agonist activity at alpha2A-adrenoceptor D128A mutant (unknown origin) expressed in HEK293T cells co-expressing pGloSensor-22F cAMP plasmid assessed as at 0.000001 to 100 uM measured after 10 mins incubation by multiplate reader; assay type: cell-based; conditions: Homo sapiens, dose lower 1e-06 µM, dose upper 100.0 µM
Mus musculus [10] = assay: Hypnotic activity in C57BL/6 mouse assessed as increase in loss of righting reflex (LORR) in presence of atipamezole alpha2-adrenoceptor antagonist at 0.60 mg/kg, ip; assay type: functional, organism-based; conditions: dose 0.6 mg/kg
[11] = Metabolic stability in mouse liver microsomes assessed as elimination half life; assay type: ADME, Microsome
Mus musculus [12] = assay: Hypnotic activity in C57BL/6 mouse assessed as increase in loss of righting reflex (LORR) in presence of BRL44408 alpha2A-adrenoceptor antagonist at 0.60 mg/kg, ip; assay type: functional, organism-based; conditions: dose 0.6 mg/kg
[13] = target: T5, Alpha-2B adrenergic receptor (Homo sapiens, UniProt P18089); assay: Agonist activity at alpha2B-adrenoceptor (unknown origin) expressed in U2OS-EGFP-NFAT2-alpha2B-AR cells assessed as increase in intracellular calcium level measured after 15 mins incubation by Micro automated microscopy; assay type: functional, cell-based
T5 sequence (P18089 whole entry): T3 sequence (P18089 whole entry)

HEK293T [14] = assay: Agonist activity at alpha2A-adrenoceptor Y409A mutant (unknown origin) expressed in HEK293T cells co-expressing pGloSensor-22F cAMP plasmid assessed as at 0.000001 to 100 uM measured after 10 mins incubation by multiplate reader; assay type: cell-based; conditions: Homo sapiens, dose lower 1e-06 µM, dose upper 100.0 µM
[15] = target: T6, Alpha-2C adrenergic receptor (Homo sapiens, UniProt P18825); assay: Agonist activity at alpha2C-adrenoceptor (unknown origin) expressed in CHO-alpha2C-PKAcatEGFP cells assessed as increase in intracellular calcium level measured after 15 mins incubation by Micro automated microscopy; assay type: functional, cell-based
T6 sequence (P18825 whole entry): T3 sequence (P18825 whole entry)

Mus musculus [16] = assay: Hypnotic activity in C57BL/6 mouse assessed as increase in loss of righting reflex (LORR) in presence of ARC239 alpha2B-adrenoceptor antagonist at 0.60 mg/kg, ip; assay type: functional, organism-based; conditions: dose 0.6 mg/kg
Mus musculus [17] = assay: Hypnotic activity in C57BL/6 mouse assessed as increase in loss of righting reflex (LORR) in presence of JP1302 alpha2C-adrenoceptor antagonist at 0.60 mg/kg, ip; assay type: functional, organism-based; conditions: dose 0.6 mg/kg
[18] = Metabolic stability in mouse liver microsomes assessed as intrinsic clearance; assay type: ADME, Microsome; conditions: read-out: CLH
[19] = target: T7, Alpha-1B adrenergic receptor (Homo sapiens, UniProt P35368); assay: Binding affinity to human alpha1B-adrenoceptor
T7 sequence (P35368 whole entry): T2 sequence (P35368 whole entry)

[20] = target: T6, Alpha-2C adrenergic receptor; assay: Agonist activity at human alpha2C-adrenoceptor
[21] = target: T8, Alpha-1D adrenergic receptor (Homo sapiens, UniProt P25100); assay: Binding affinity to human alpha1D-adrenoceptor
T8 sequence (P25100 whole entry): T2 sequence (P25100 whole entry)

[22] = target: T5, Alpha-2B adrenergic receptor; assay: Agonist activity at human alpha2B-adrenoceptor
[23] = target: T4, Alpha-1A adrenergic receptor
Description: Binding affinity to human alpha1A-adrenoceptor

[24] = Selectivity index, ratio of EC50 for alpha2A-adrenoceptor (unknown origin) to EC50 for alpha1A-adrenoceptor (unknown origin)
[25] = Selectivity index, ratio of EC50 for alpha2A-adrenoceptor (unknown origin) to EC50 for alpha2C-adrenoceptor (unknown origin)
[26] = Selectivity index, ratio of EC50 for alpha2A-adrenoceptor (unknown origin) to EC50 for alpha2B-adrenoceptor (unknown origin)
[27] = target: T1, Alpha-2A adrenergic receptor
Description: Agonist activity at alpha2A-adrenoceptor (unknown origin) expressed in CHO-alpha2-AR-PKAcatEGFP cells assessed as intracellular cAMP concentration by measuring PKA translocation after 15 mins incubation by PKA redistribution assay

Compound	ED50 (Mus musculus [4])	Activity (HEK293T [5])	Activity (Mus musculus [6])	EC50 [7]	Activity (HEK293T [9])	half-life [11]	EC50 [13]	Activity (HEK293T [14])	EC50 [15]	microsomal CLint [18]	further results
CC(c1cccc(C2(C(F)(F)F)N=N2)c1)c1c[nH]cn1 (centres undefined)	–	–	–	–	–	–	–	–	–	–	pEC50 [1]: 6.53
Cc1cccc2c1CCC2c1c[nH]cn1 (centres undefined)	–	–	–	–	–	–	–	–	–	–	pKi [2]: 7.14; pKi [3]: 8.06
Cc1cccc([C@H](C)c2c[nH]cn2)c1C [DEXMEDETOMIDINE]	0.11 mg/kg	inactive	Dose-Dependent Effect	–	–	–	–	–	–	–	–
Brc1cccc2c1OCCC2c1c[nH]cn1 (centres undefined)	–	–	Dose-Dependent Effect	2.55 nM	inactive	47.8 min	163 nM	inactive	21.3 nM	29 µL/min/mg	Activity (Mus musculus [8]): inactive; Activity (Mus musculus [10]): inactive; Activity (Mus musculus [12]): inactive; Activity (HEK293T [5]; filed as agonist): Active; Activity (Mus musculus [16]): Active; Activity (Mus musculus [17]): Active
Cc1cccc([C@H](C)c2cnc[nH]2)c1C [DEXMEDETOMIDINE]	–	–	–	13 nM	–	156 min	1.91 nM	–	5.37 nM	8.89 µL/min/mg	Ki [19]: 9.12 µM; EC50 [20]: 28.8 nM; Ki [21]: 1230 nM; EC50 [22]: 3.31 nM; Ki [23]: 1320 nM
Brc1cccc2c1OCC=C2c1c[nH]cn1	1.54 mg/kg	inactive	Dose-Dependent Effect	32 nM	inactive	5.56 min	186 nM	inactive	37.2 nM	249 µL/min/mg	Selectivity Index [24]: 41; Selectivity Index [25]: 48; Selectivity Index [26]: 238; EC50 [27]: 0.78 nM
